Six compounds from patent US11492325B2, “Compounds as inhibitors of sodium channels” (Human BioMolecular Research Institute, priority 2016, dated 2022) can be followed below.

Read-outs that look alike come from different tables or passages of the source. Some results are limits rather than exact numbers.

The nature of series [1]: Metabolic stability in rat liver microsomes. Type of series: in vitro ADME. The conditions noted are these: for half-life at 50 μM: rat, liver microsomes, pH 7.4, NADPH-generating system, 37° C., read-out: Liver Microsomes t1/2 Rat. Here is the method:
(§1) A typical incubation contained rat, mouse, dog or human liver microsomes (0.4-0.5 mg of protein), 100 mM potassium phosphate buffer (pH7.4), 50 μM test compound, an NADPH-generating system consisting of 0.5 mM NADP^+, 0.5 mM glucose-6-phosphate, 1 IU/mL glucose-6-phosphate dehydrogenase, 1 mg/mL diethylenetriaminepentaaceticacid (DETAPAC), and 3 mM MgCl2 in a final incubation volume of 0.25 mL. […] After centrifugation at 3000 rpm for 5 min, the organic fraction was collected, the solvent was removed with a stream of argon and the residue was reconstituted in 125 μL of MeOH and 125 μL H2O, mixed thoroughly, centrifuged at 13,000 rpm for 5 min and analyzed by high performance liquid chromatography. Samples were run on a Hitachi D-7000 HPLC system using a L-7100 analytical pump, L-7400 UV-Visible variable wavelength detector, and L-7600 automatic sample injector. […] Disappearance of the analyte was monitored over time. A plot of the area under the curve for the normalized analyte versus time afforded the half-life values and kapp.

Series [2] can be described thus: Metabolic stability in human liver microsomes. Type of series: in vitro ADME. An outline of the steps:
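Liver microsomes (rat, mouse, dog or human; 0.4-0.5 mg protein) incubated with 50 μM compound in 100 mM potassium phosphate pH 7.4 with NADPH-generating system and 3 mM MgCl2. Parent loss followed by HPLC-UV; half-life and kapp from normalized peak area versus time.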
In general terms: Microsomes from liver hold many membrane-bound enzymes, among them those of drug oxidation.

The nature of series [3]: Metabolic stability in dog liver microsomes. Format: in vitro ADME. The note with it: for half-life at 50 μM: dog, liver microsomes, pH 7.4, NADPH-generating system, 37° C., read-out: Liver Microsomes t1/2 Dog. Here is the method:
as §1

The nature of series [4]: Metabolic stability in mouse liver microsomes. The note with it: for half-life at 50 μM: mouse, liver microsomes, pH 7.4, NADPH-generating system, 37° C., read-out: Liver Microsomes t1/2 Mouse. Format: in vitro ADME. On the procedure: as §1
For series [5], the target named is CYP2D6 (Homo sapiens, UniProt P10635). Kind of series: Metabolism with highly purified CYP2D6 (HPLC). Here is the method:
as §1
(§2) Accordingly, we examined the metabolism of leads with highly purified CYPs with an HPLC method (Example 8).

Series [6] addresses CYP3A5 (Homo sapiens, UniProt P20815). Kind of series: Metabolism with highly purified CYP3A5 (HPLC). Here is the method:
as §1, §2

Series [7] concerns the target T1, CYP3A4 (Homo sapiens, UniProt P08684). The conditions noted are these: 50 min.
Series [8] concerns the target T2, Human FMO1 (Homo sapiens, UniProt Q01740).
T2 sequence (Q01740 1-532): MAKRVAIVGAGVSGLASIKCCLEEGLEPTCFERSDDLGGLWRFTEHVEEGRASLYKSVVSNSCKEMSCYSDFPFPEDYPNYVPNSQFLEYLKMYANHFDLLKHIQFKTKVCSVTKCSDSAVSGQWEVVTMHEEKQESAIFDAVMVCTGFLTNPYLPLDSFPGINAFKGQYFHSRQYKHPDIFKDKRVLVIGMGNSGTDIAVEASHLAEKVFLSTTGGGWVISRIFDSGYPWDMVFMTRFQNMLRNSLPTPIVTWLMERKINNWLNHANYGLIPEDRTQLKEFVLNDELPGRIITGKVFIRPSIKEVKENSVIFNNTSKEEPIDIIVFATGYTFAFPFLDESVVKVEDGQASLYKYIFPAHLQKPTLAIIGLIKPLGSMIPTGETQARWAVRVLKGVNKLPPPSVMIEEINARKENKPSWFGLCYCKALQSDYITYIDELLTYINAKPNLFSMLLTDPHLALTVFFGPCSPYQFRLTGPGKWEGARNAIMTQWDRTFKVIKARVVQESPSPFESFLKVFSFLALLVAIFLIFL
Briefly: Metabolism with human FMO1 (nmol metabolism/incubation). The note with it: 15 μg enzyme/incubation; 30 mins, 37° C.; nmol metabolism/incubation.

The nature of series [9]: Metabolism in human hepatic S9.
Series [10] in a line: Metabolism in mouse hepatic S9. The note with it: 0.4 mg protein/incubation; 30 mins, 37° C.; nmol metabolism/incubation. On the procedure:
as §1
Microsomes contain CYPs and FMO metabolic enzymes. S9 contains soluble enzymes (i.e., aldehyde oxidase, MAO, etc.).

Series [11] has as its system FMO. Kind of series: Metabolism by FMO.
In series [12] the target is T1, CYP3A4. Briefly: Metabolism with highly purified CYP3A4 (HPLC).
Series [13] deals with isolated perfused aged rat heart exposed to hydrogen peroxide. Briefly: Aged rat heart perfusion model of arrhythmia (H2O2, ex vivo). The note with it: 10 μM, 30 min after perfusion, continuous H2O2 (0.1 mM). Here is the method:
FIG. 1. Initiation of Early After Depolarizations-Mediated Ectopic Ventricular Beats and Ventricular Fibrillation in an Isolated Perfused Aged Rat Heart Exposed to hydrogen peroxide.
Conduction velocity (CV), action potential duration (APD) and responsiveness to drugs was measured in ex-vivo rat heart preparations (FIG. 1). We chose a rat heart model to test for the effect of (R)-82 (i.e., (R)-Dd, Example 4) to decrease arrhythmias because CV and APD are preserved in buffer-perfused rat hearts up to […]. In contrast, in this model, continuous presence (perfusion) of H2O2 (0.1 mM) produces early after depolarizations (EADs) and ectopic ventricular beats 6 min after exposure that degenerates to ventricular tachycardia (VT) and ventricular fibrillation (VF) after 12 min (FIG. 1). Left untreated, the heart would die within 45 mins. […] The conclusion is that (R)-82 is more efficacious than the currently used standard of care.

The test system of series [14] is Male BALBc mice. The note with it: mice, 100 mg/kg. From the text:
Male BALBc mice (20-22 g) were used throughout these studies. The animals were maintained in a temperature-controlled room with 12-hr periods of light and darkness and had continuous access to water and animal food. […] Groups contained 2-4 animals.

Sequence of CYP3A5 (P20815 whole entry): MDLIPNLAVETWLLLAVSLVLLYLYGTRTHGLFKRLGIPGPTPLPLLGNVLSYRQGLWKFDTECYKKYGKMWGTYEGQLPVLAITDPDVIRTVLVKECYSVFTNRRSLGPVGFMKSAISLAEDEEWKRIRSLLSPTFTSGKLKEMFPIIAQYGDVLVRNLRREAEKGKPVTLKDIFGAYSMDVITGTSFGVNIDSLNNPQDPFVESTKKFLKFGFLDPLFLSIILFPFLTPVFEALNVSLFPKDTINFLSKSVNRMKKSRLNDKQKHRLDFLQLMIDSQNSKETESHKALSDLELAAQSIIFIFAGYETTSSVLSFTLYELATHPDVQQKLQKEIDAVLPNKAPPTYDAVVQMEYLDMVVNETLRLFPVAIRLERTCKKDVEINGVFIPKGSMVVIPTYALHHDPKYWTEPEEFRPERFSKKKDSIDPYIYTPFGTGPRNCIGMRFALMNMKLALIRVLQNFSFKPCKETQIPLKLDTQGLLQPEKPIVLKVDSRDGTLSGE
Sequence of CYP2D6 (P10635 whole entry): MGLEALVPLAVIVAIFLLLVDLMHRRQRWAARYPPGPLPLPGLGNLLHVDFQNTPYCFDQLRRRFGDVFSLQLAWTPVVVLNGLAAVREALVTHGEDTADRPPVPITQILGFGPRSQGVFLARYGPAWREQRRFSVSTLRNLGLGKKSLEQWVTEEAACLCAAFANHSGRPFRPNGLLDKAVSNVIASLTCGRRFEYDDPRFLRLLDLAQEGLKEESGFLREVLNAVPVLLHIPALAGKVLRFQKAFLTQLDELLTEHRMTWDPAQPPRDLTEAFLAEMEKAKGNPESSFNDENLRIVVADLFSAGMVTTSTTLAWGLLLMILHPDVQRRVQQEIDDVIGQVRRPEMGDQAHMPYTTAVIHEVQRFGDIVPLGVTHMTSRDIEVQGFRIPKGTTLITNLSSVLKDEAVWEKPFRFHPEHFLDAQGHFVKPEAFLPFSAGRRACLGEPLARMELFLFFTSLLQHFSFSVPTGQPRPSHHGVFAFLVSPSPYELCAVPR
T1 sequence (P08684 whole entry): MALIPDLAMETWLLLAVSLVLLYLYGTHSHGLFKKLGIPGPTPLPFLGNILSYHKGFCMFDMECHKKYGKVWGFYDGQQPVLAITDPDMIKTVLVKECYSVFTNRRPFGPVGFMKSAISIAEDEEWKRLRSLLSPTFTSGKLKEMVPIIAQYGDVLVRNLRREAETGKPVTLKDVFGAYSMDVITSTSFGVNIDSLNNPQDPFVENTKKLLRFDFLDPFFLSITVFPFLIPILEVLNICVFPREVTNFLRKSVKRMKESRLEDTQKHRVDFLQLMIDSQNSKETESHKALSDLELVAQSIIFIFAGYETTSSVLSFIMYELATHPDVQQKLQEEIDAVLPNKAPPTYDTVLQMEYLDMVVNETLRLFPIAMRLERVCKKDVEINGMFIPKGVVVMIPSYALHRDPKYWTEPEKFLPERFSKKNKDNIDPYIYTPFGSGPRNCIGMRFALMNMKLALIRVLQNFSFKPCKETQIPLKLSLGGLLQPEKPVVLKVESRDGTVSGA

As to `NC(COc1cc(C(F)(F)F)cc(C(F)(F)F)c1)c1ccccc1` (centres unmarked) [drawing 302], the “parent after 60 min, Rat liver microsomes (Stable)” value in series [1] (60 min) is listed as “Stable >95% parent after 60 min”. The “parent after 60 min, Human liver microsomes (Stable)” value in series [2] is “Stable >95% parent after 60 min”. In addition, the half-life at 50 μM in series [3] stood at 1.93 h. Further, in series [4] (60 min), the “parent after 60 min, Mouse liver microsomes (Stable)” value was “Stable >95% parent after 60 min”.
Consider `Cl.NC(COc1ccccc1C(F)(F)F)c1ccccc1` (racemic) [Compound 82, 1-phenyl-2-(2-(trifluoromethyl)phenoxy)ethan-1-amine], for which, in [5] (human, 50 min), the “nmols metabolized, CYP2D6” value is 29.1 nmols; the “nmols/μg CYP, CYP2D6” value worked out at 2.18 nmols/μg CYP; the “pmols product/μg CYP/min, CYP2D6” value is on record as 43.6 pmols product/μg CYP/min. Also, in series [6] (human, 50 min), the “nmols metabolized, CYP3A5” value amounted to 29.9 nmols; the “nmols/μg CYP, CYP3A5” value came to 2.13 nmols/μg CYP; the “pmols product/μg CYP/min, CYP3A5” value came to 42.6 pmols product/μg CYP/min. Further, in series [7], the “nmols metabolized, CYP3A4” value is given as 10.9 nmols; the “nmols/μg CYP, CYP3A4” value is reported as 0.77 nmols/μg CYP; the “pmols product/μg CYP/min, CYP3A4” value is reported as 15.4 pmols product/μg CYP/min.
As to `Cc1cc(C)cc(OCC(N)c2ccccc2)c1` (centres unmarked) [drawing 301], the half-life at 50 μM was found to be 0.867 h in [1]; 1.73 h in series [2] (human, liver microsomes, pH 7.4, 50 μM, NADPH-generating system, 37° C., read-out: Liver Microsomes t1/2 Human); 3.07 h in series [3]; 0.983 h in series [4].
On to `Cc1cccc(C)c1OCC(C)N` (racemic) [Mexiletine, reference compound], for which the “Human FMO1 (nmol/incub)” value in series [8] was found to be 6.7 nmol/incub. Further, in [5] (50 min incubation), the “nmols metabolized, CYP2D6” value is recorded as 4.04 nmols and the “pmols product/μg CYP/min, CYP2D6” value is listed as 6.0 pmols product/μg CYP/min. Moreover, in series [6] (50 min incubation), the “nmols metabolized, CYP3A5” value is recorded as 34.2 nmols and the “pmols product/μg CYP/min, CYP3A5” value is 48.8 pmols product/μg CYP/min. Moreover, in [9], the “metabolism in human liver S-9 judged by HPLC” value is recorded as “not metabolized very extensively”. Further, the “Mouse liver S-9 (nmol/incub)” value in [10] is 5.2 nmol/incub. The “metabolism by FMO” value in series [11] is “metabolized by FMO”. Also, the “metabolism in human liver microsomes judged by HPLC” value in [2] is recorded as “not metabolized very extensively”. The “Human CYP3A4 (nmol/incub)” value in series [12] (3 pmol enzyme/incubation, 30 mins, 37° C., nmol metabolism/incubation) was found to be 3.0 nmol/incub. In series [12] (50 min incubation), the “nmols metabolized, CYP3A4” value amounted to 32.4 nmols and the “pmols product/μg CYP/min, CYP3A4” value turned out to be 46.2 pmols product/μg CYP/min.
With `Cl.NC(COc1ccccc1C(F)(F)F)c1ccccc1` (stereo in doubt) [(R)-82], the “Liver S-9, remaining after 1 hr” value in [9] (human, s9, 1 h) is over 95% after 1 hr. For the same compound, in series [2] (human, microsomes), the “Liver Microsomes T1/2” value is 2.27 h. Also, the resolution of arrhythmias result in series [13] is given as “complete resolution of all forms of arrhythmias to normal sinus rhythm”. Further, in series [14], the “Behavior Effect (R)-enantiomer” value was “No detectable effect”. Moreover, in series [14] (enantiomers), the “behavioral effects at 100 mg/kg” value was “no apparent behavioral effects”.
Consider `NC(COc1ccccc1C(F)(F)F)c1ccccc1` (centres unmarked) [drawing 304], for which the half-life at 50 μM in [1] was determined as 3.3 h; in [4] it was 3.27 h. The “parent after 60 min, Human liver microsomes (Stable)” value in series [2] was “Stable >95% parent after 60 min”. The “parent after 60 min, Dog liver microsomes (Stable)” value in series [3] (60 min) is on record as “Stable >95% parent after 60 min”.
